# “Also recorded” adds a separate entry of the source.
# Experiment: Plasma and brain metabolite levels by HPLC after a single i.p. cystamine injection (dose-response study)
# Assay type: in vivo, C57BL/6 mice
# Description: Young adult (9-week old, 25 g) male C57BL/6 mice were purchased from Charles River Laboratories (Montréal, QC, Canada). Animals were housed four per cage under standard conditions with free access to food and water, randomized and handled under the same conditions by one investigator. All experiments were performed in accordance with the Canadian Council on Animal Care and were approved by the Institutional Committee of the Centre Hospitalier de l'Université Laval (CHUL). Throughout the experiment, the health status of all mice included in the study was closely monitored. To clearly identify the active intermediate following cystamine injection, as well as to understand its systemic and cerebral metabolism, a single intraperitoneal (i.p.) injection of cystamine was administered to normal adult C57BL/6 male mice using three different doses: 10, 50, and 200 mg/kg, as determined in prior publications (Tremblay et al. 2006; Gibrat et al. 2010). These doses were ultimately compared with saline injections. Cystamine was dissolved in sterile saline (0.9%) and injected 1, 3, 12, 24 and 48 h before killing. Animals were sacrificed under deep anesthesia with ketamine/xylazine and perfused via intracardiac infusion with 0.1 M phosphate-buffered saline. After intracardiac perfusion, brains were collected, snap-frozen in 2-methyl-butane and then stored at −80° C. until cryostat dissection for HPLC analyses. A total of 200 mice were assigned to this study (n=10 per group).
# HPLC coupled to fluorescence detection was used in cysteine and cysteamine quantification of both sets of experiments: the dose-response study and in situ cerebral perfusion (ISCP) procedures. Frontal cortex were homogenized in 200 μL of NaHCO3 and then centrifuged at 15 700 g (4° C.) for 20 min. Fifty μl of supernatant were directly derivatized with 30 μL of 4-fluoro-7-sulfamoylbenzo-furazan (ABD-F) reagent. The alkylation reaction was completed at 55° C. for 15 min and stopped with 4.9 μL HCl 12 N. After a 10-min centrifugation at 7500 g (4° C.), the supernatant were immediately injected into the chromatograph consisting of a Waters 717 plus autosampler automatic injector set at 4° C., a Waters 1525 binary pump equipped with an Atlantis dC18 ([…]; 3.9×150 mm) column, and a Waters 2487 Dual Absorbance detector (Waters limited, Lachine, QC, Canada). The excitation was set at 385 nm and emission at 515 nm. The mobile phase, which consisted in 2.5% methanol and 0.1 M ammonium acetate adjusted at pH 4.0, was delivered at 1 mL/min (Santa et al. 2006). Peaks were identified and quantified using Breeze software (Waters limited). HPLC quantifications were normalized to protein concentrations. Protein measurements were determined with a bicinchoninic acid protein assay kit (Pierce, Rockford, Ill., USA) as described by the manufacturer's protocol.
# Taurine and hypotaurine were measured by HPLC coupled with UV detection. Supernatant from NaHCO3 brain (bregma 1.54 to −0.58 mm) extracts (see section above for details) were directly derivatized with the reagent dansyl chloride (Sigma-Aldrich, St. Louis, Mo., USA) based on modified published methods (Saller and Czupryna 1989; Calon et al. 1999). Briefly, 50 μL of dansyl chloride (1.2 mg/mL) and 50 μL of sample or standard solution were mixed and then incubated for 30 min at 90° C. After a 10-min centrifugation at 7500 g (4° C.), supernatants were immediately injected into the chromatograph described above. Absorbance was set at 337 nm and the sensitivity at 0.5 absorbance unit full scale. […] Results were obtained using the same method as described above.
# [1] = single i.p. cystamine 10, 50 or 200 mg/kg
# [2] = single i.p. cystamine 10, 50 or 200 mg/kg, 1-48 h
smiles,measurement,setting,value
"NCCSSCCN [cystamine, Cystamine]",plasma cysteamine level,"cystamine-treated mice, single i.p. dose",undetectable
same,brain cysteamine level,"single i.p. cystamine 50 mg/kg, 1 h post-injection, vs saline",significant increases; also recorded: significantly increased
same,brain cysteamine level,"single i.p. cystamine 200 mg/kg, 1 h post-injection, vs saline",significant increase
same,plasma hypotaurine level,[1],remained under or close to the detection threshold
same,plasma taurine level,[1],remained under or close to the detection threshold
same,brain hypotaurine level,[2],no significant alteration
same,brain taurine level,[2],no significant alteration
same,brain cysteamine level,"single i.p. cystamine (200 mg/kg per FIG. 7), 3 h post-injection, vs saline",remained significantly elevated; also recorded: significant increase
same,brain cysteamine level,"single i.p. cystamine, all three doses (10, 50, 200 mg/kg), each time point",marked increased in brain cysteamine
same,plasma cysteine level,"single i.p. cystamine, up to 200 mg/kg (data not shown)",did not affect
same,brain cysteine level,"single i.p. cystamine, up to 200 mg/kg, all time points",did not affect; also recorded: stable

# Source: US20140073694A1, “CYSTAMINE ANALOGUES FOR THE TREATMENT OF PARKINSON'S DISEASE” (UNIVERSITE LAVAL, priority 2011, published 2014)
